This assay concerns BDF1 mice, B16 melanoma ip, median survival T/C. The assay can be described thus: NCI In Vivo Anticancer Drug Screen. Data for tumor model B16 Melanoma (intraperitoneal) in B6D2F1 (BDF1) mice. The settings on record: endpoint: median survival time, higher = longer survival. On the procedure:
The antitumor activity of compounds was measured in mice bearing transplantable tumors. Survival or tumor size were measured and the results are expressed as the measurement made in the treated group (T) divided by the measurement made in the vehicle treated control group (C). The tumor model used in this assay is B16 Melanoma (intraperitoneal) in B6D2F1 (BDF1) mice

Where [1] appears, read: dose: 100.0 mg/kg/injection, schedule: Q04DX003 (ip), vehicle: saline with Tween-80.
[2] abbreviates: dose: 200.0 mg/kg/injection, schedule: Q04DX003 (ip), vehicle: saline with Tween-80.
Where [3] appears, read: dose: 100.0 mg/kg/injection, schedule: Q01DX009 (ip), vehicle: Klucel (hydroxypropylcellulose) (HPC).
[4] abbreviates: dose: 25.0 mg/kg/injection, schedule: Q01DX009 (ip), vehicle: saline.
The mark [5] stands for this setting: dose: 50.0 mg/kg/injection, schedule: Q01DX009 (ip), vehicle: saline.
Where [6] appears, read: dose: 50.0 mg/kg/injection, schedule: Q01DX009 (ip), vehicle: Klucel (hydroxypropylcellulose) (HPC).

Several values for one entry are separate records, joined by “and”; a condition that tells them apart may be missing. Identical values can stand only once. Toxic doses and inconclusive results are not listed.

With `CCC(CC)(C[NH-])C[NH-].[Cl][Pt+2][Cl]`, the T/C runs as follows: (dose: 1.2 mg/kg/injection, schedule: Q01DX009 (ip), vehicle: carboxymethylcellulose (CMC)) 164 % of control; (dose: 2.4 mg/kg/injection, schedule: Q01DX009 (ip), vehicle: carboxymethylcellulose (CMC)) 164 % of control.

Regarding `CCNC(=O)Nc1ccc(C)cc1C`, the T/C by setting is: (dose: 100.0 mg/kg/injection, schedule: Q04DX003 (ip), vehicle: Klucel (hydroxypropylcellulose) (HPC)) 106 % of control; (dose: 200.0 mg/kg/injection, schedule: Q04DX003 (ip), vehicle: Klucel (hydroxypropylcellulose) (HPC)) 96 % of control; (dose: 400.0 mg/kg/injection, schedule: Q04DX003 (ip), vehicle: Klucel (hydroxypropylcellulose) (HPC)) 106 % of control.

`Cc1cc(C)c(C(=O)O)c(C)c1Br`: the T/C is 102 % of control under setting [1]; 97 % of control under setting [2]; 100 % of control (dose: 400.0 mg/kg/injection, schedule: Q04DX003 (ip), vehicle: saline with Tween-80).

Turning to `Cc1cccc(C2NC(=O)c3ccccc3N2)c1` (configuration not stated), the T/C reads like this: under setting [3], 109 % of control; (dose: 200.0 mg/kg/injection, schedule: Q01DX009 (ip), vehicle: Klucel (hydroxypropylcellulose) (HPC)) 112 % of control; (dose: 400.0 mg/kg/injection, schedule: Q01DX009 (ip), vehicle: Klucel (hydroxypropylcellulose) (HPC)) 115 % of control.

On to `COc1ccc([I+]c2ccccc2)cc1`, for which the T/C reads like this: (dose: 0.75 mg/kg/injection, schedule: Q01DX009 (ip), vehicle: saline with Tween-80) 95 % of control; (dose: 1.5 mg/kg/injection, schedule: Q01DX009 (ip), vehicle: saline with Tween-80) 97 % of control; (dose: 3.0 mg/kg/injection, schedule: Q01DX009 (ip), vehicle: saline with Tween-80) 102 % of control; (dose: 6.0 mg/kg/injection, schedule: Q01DX009 (ip), vehicle: saline with Tween-80) 93 % of control.

As for `CN1CCC=C(C(=O)N2c3ccccc3Sc3ccccc32)C1`, the T/C was 102 % of control under setting [4] and 96 % of control under setting [5].

`COc1ccccc1NC(=O)Nc1c(C)cccc1C`: the T/C was 101 % of control (dose: 100.0 mg/kg/injection, schedule: Q01DX009 (ip), vehicle: gum acacia); 102 % of control (dose: 200.0 mg/kg/injection, schedule: Q01DX009 (ip), vehicle: gum acacia); 90 % of control (dose: 400.0 mg/kg/injection, schedule: Q01DX009 (ip), vehicle: gum acacia).

`COc1cc(Cl)c(CC(=O)c2c[nH]c3ccccc23)cc1OC`: the T/C runs as follows: (dose: 6.25 mg/kg/injection, schedule: Q01DX009 (ip), vehicle: saline with Tween-80) 100 % of control; (dose: 12.5 mg/kg/injection, schedule: Q01DX009 (ip), vehicle: saline with Tween-80) 89 % of control.

`O=C(CC(O)(C(F)(F)F)C(F)(F)F)CC(O)(C(F)(F)F)C(F)(F)F`: the T/C was 116 % of control (dose: 1.25 mg/kg/injection, schedule: Q04DX003 (ip), vehicle: saline); 122 % of control and 116 % of control (dose: 2.5 mg/kg/injection, schedule: Q04DX003 (ip), vehicle: saline).

In the case of `CC1CNC(=S)O1` (configuration not stated), the T/C is 97 % of control under setting [4]; 91 % of control under setting [5]; 91 % of control (dose: 100.0 mg/kg/injection, schedule: Q01DX009 (ip), vehicle: saline); 89 % of control (dose: 200.0 mg/kg/injection, schedule: Q01DX009 (ip), vehicle: saline); 91 % of control (dose: 400.0 mg/kg/injection, schedule: Q01DX009 (ip), vehicle: saline).

`C=CC=O`: the T/C is, setting by setting: (dose: 0.45 mg/kg/injection, schedule: Q01DX009 (ip), vehicle: saline) 95 % of control; (dose: 0.9 mg/kg/injection, schedule: Q01DX009 (ip), vehicle: saline) 88 % of control; (dose: 1.8 mg/kg/injection, schedule: Q01DX009 (ip), vehicle: saline) 90 % of control.

As for `O=C1OC2CC1(O)CC(O)C2O` (configuration not stated), the T/C (dose: 6.25 mg/kg/injection, schedule: Q01DX009 (ip), vehicle: saline) is 111 % of control; the T/C (dose: 12.5 mg/kg/injection, schedule: Q01DX009 (ip), vehicle: saline) was 92 % of control; the T/C under setting [4] is 101 % of control; the T/C (dose: 50.0 mg/kg/injection, schedule: Q04DX003 (ip), vehicle: saline with Tween-80) was 103 % of control; the T/C under setting [1] is 97 % of control; the T/C under setting [2] is 94 % of control.

On to `N#CCCCc1ccccc1`, for which the T/C under setting [6] is 112 % of control and the T/C under setting [3] was 106 % of control.

With `ClCC[Se](Cl)(Cl)c1ccccc1`, the T/C is 96 % of control (dose: 0.78 mg/kg/injection, schedule: Q01DX009 (ip), vehicle: saline); 105 % of control (dose: 1.56 mg/kg/injection, schedule: Q01DX009 (ip), vehicle: saline); 113 % of control (dose: 3.12 mg/kg/injection, schedule: Q01DX009 (ip), vehicle: saline).

In the case of `O=[N+]([O-])/C=C\c1ccc2c(c1)OCO2`, the T/C (dose: 22.0 mg/kg/injection, schedule: Q01DX009 (ip), vehicle: Klucel (hydroxypropylcellulose) (HPC)) is 96 % of control; the T/C (dose: 33.0 mg/kg/injection, schedule: Q01DX009 (ip), vehicle: Klucel (hydroxypropylcellulose) (HPC)) was 108 % of control; the T/C under setting [6] is 96 % of control; the T/C (dose: 75.0 mg/kg/injection, schedule: Q01DX009 (ip), vehicle: Klucel (hydroxypropylcellulose) (HPC)) was 100 % of control.

With `COc1cc2cc(c1Cl)N(C)C(=O)CC(OC(=O)C(C)C)C1(C)OC1C(C)C1CC(O)(NC(=O)O1)C(OC)/C=C/C=C(C)C2` (configuration not stated), the T/C (dose: 3.1 micrograms/kg/injection, schedule: Q01DX009 (ip), vehicle: saline + alcohol) is 124 % of control; the T/C (dose: 6.25 micrograms/kg/injection, schedule: Q01DX009 (ip), vehicle: saline + alcohol) is 169 % of control; the T/C (dose: 7.0 micrograms/kg/injection, schedule: Q01DX009 (ip), vehicle: saline + alcohol) was 150 % of control; the T/C (dose: 12.5 micrograms/kg/injection, schedule: Q01DX009 (ip), vehicle: saline + alcohol) was 152 % of control and 168 % of control; the T/C (dose: 15.0 micrograms/kg/injection, schedule: Q01DX009 (ip), vehicle: saline + alcohol) was 165 % of control; the T/C (dose: 25.0 micrograms/kg/injection, schedule: Q01DX009 (ip), vehicle: saline + alcohol) is 157 % of control and 160 % of control and 165 % of control. Besides, the T/C by setting is: (dose: 30.0 micrograms/kg/injection, schedule: Q01DX009 (ip), vehicle: saline + alcohol) 178 % of control; (dose: 50.0 micrograms/kg/injection, schedule: Q01DX009 (ip), vehicle: saline + alcohol) 164 % of control and 176 % of control; (dose: 60.0 micrograms/kg/injection, schedule: Q01DX009 (ip), vehicle: saline + alcohol) 182 % of control.

With `COC(=O)/C(C)=C/C=C/C(OC)C(OC(N)=O)/C(C)=C/C(C)C(O)C(CC(C)CC1=C(OC)C(=O)C=C(N)C1=O)OC` (configuration not stated), the T/C was 103 % of control (dose: 12.5 mg/kg/injection, schedule: Q01DX005 (ip), vehicle: other); 99 % of control (dose: 25.0 mg/kg/injection, schedule: Q01DX005 (ip), vehicle: other); 108 % of control (dose: 50.0 mg/kg/injection, schedule: Q01DX005 (ip), vehicle: other); 108 % of control (dose: 100.0 mg/kg/injection, schedule: Q01DX005 (ip), vehicle: other); 86 % of control (dose: 200.0 mg/kg/injection, schedule: Q01DX005 (ip), vehicle: other).

For `C/C=C/C=C/c1cc2cc3c(c(O)c2c(=O)[nH]1)C1(CC3)C(O)=c2c(=O)c3c(=O)cc(OC)c(=O)c=3c(=O)c2=C1O` (configuration not stated), the T/C was 98 % of control (dose: 0.06 mg/kg/injection, schedule: Q01DX009 (ip), vehicle: DMSO); 99 % of control (dose: 0.12 mg/kg/injection, schedule: Q01DX009 (ip), vehicle: DMSO); 96 % of control (dose: 0.25 mg/kg/injection, schedule: Q01DX009 (ip), vehicle: DMSO); 120 % of control (dose: 0.5 mg/kg/injection, schedule: Q01DX009 (ip), vehicle: DMSO).

Turning to `CC(O)C(=O)[O][Hg][c]1ccccc1` (configuration not stated), the T/C (dose: 2.5 mg/kg/injection, schedule: Q01DX009 (ip), vehicle: saline with Tween-80) was 102 % of control and the T/C (dose: 5.0 mg/kg/injection, schedule: Q01DX009 (ip), vehicle: saline with Tween-80) is 102 % of control.

(Values after PubChem BioAssay AID192 (DTP/NCI, 2004).)
